Laboratory results as given in US10206937B2, “Boronic acid derivatives and therapeutic uses thereof” (Qpex Biopharma, Inc., priority 2014, dated 2019).

Tested on: strains of Enterobacteriaceae producing various carbapenemases (class A, D and B; 104 strains)
Test: Antibiotics potentiation by Compound 27 (MIC; meropenem, doripenem, ertapenem, cefepime)
Type: cell-based
Settings: + 27 = with Compound 27 at fixed 4 μg/ml

In the case of COc1ccc2c(c1C(=O)O)OB(O)C(Sc1nnc(N)s1)C2 (stereo not shown) [C + 27], the MIC (strain KP1081 Klebsiella pneumoniae (NDM-1, TEM-1, SHV-11, CMY-6, CTX-M-15)) is reported as “Y (MIC of 1 μg/mL to 10 μg/mL)”, the MIC (strain KP1082 Klebsiella pneumoniae (KPC-2, SHV-1)) is reported as “X (MIC of less than 1 μg/mL)” and the MIC (strain KP1083 Klebsiella pneumoniae (KPC-3, SHV-1, TEM-1)) is reported as “X (MIC of less than 1 μg/mL)”. For the same molecule, the MIC (strain KP1084 Klebsiella pneumoniae (KPC-3, SHV-11, TEM-1)) was “Y (MIC of 1 μg/mL to 10 μg/mL)”, the MIC (strain KP1086 Klebsiella pneumoniae (OXA-48, CTX-M-15, TEM, SHV)) was “Z (MIC of greater than 10 μg/mL)” and the MIC (strain KP1087 Klebsiella pneumoniae (KPC-2, CTX-M-15, SHV-11, TEM-1)) was “Y (MIC of 1 μg/mL to 10 μg/mL)”. For the same molecule, the MIC (strain KP1088 Klebsiella pneumoniae (KPC-3, SHV-11, TEM-1)) was “X (MIC of less than 1 μg/mL)”, the MIC (strain KP1089 Klebsiella pneumonias (OXA-181, CTX-M-15, TEM, SHV)) was “Y (MIC of 1 μg/mL to 10 μg/mL)” and the MIC (strain KP1095 Klebsiella pneumoniae (KPC-2 TEM-1 SHV-1)) was “X (MIC of less than 1 μg/mL)”. For the same molecule, the MIC (strain KP1096 Klebsiella pneumoniae (KPC-2 TEM-181 SHV-11)) was “X (MIC of less than 1 μg/mL)”, the MIC (strain KP1097 Klebsiella pneumonias (IMP-1)) was “X (MIC of less than 1 μg/mL)” and the MIC (strain KP1098 Klebsiella pneumoniae (IMP-26)) was “Y (MIC of 1 μg/mL to 10 μg/mL)”. For the same molecule, the MIC (strain KP1104 Klebsiella pneumoniae (KPC TEM)) was “X (MIC of less than 1 μg/mL)”, the MIC (strain KP1105 Klebsiella pneumoniae (KPC TEM SHV)) was “X (MIC of less than 1 μg/mL)” and the MIC (strain KP1159 Klebsiella pneumoniae (SHV-1(2b); CTX-M-15; IMP-4)) was “X (MIC of less than 1 μg/mL)”. The MIC (strain KP1160 Klebsiella pneumoniae (SHV-28(2be); CTX-M-15; IMP-26)) was “X (MIC of less than 1 μg/mL)”, the MIC (strain KP1161 Klebsiella pneumoniae (NDM-1)) was “X (MIC of less than 1 μg/mL)” and the MIC (strain KP1164 Klebsiella pneumoniae (SHV-12(2be); VIM-1)) was “X (MIC of less than 1 μg/mL)”. For the same molecule, the MIC (strain KP1165 Klebsiella pneumoniae (SHV-11(2b); CTX-M-15; VIM-27)) was “Z (MIC of greater than 10 μg/mL)”, the MIC (strain KP1166 Klebsiella pneumoniae (SHV-5(2be); VIM-26)) was “Z (MIC of greater than 10 μg/mL)” and the MIC (strain KP1167 Klebsiella pneumoniae (SHV-12(2be); VIM-1)) was “X (MIC of less than 1 μg/mL)”. The MIC (strain KP1169 Klebsiella pneumoniae (SHV-11(2b); VIM-1)) was “X (MIC of less than 1 μg/mL)”, the MIC (strain KP1170 Klebsiella pneumoniae (SHV-11(2b); CTX-M-15; NDM-1)) was “X (MIC of less than 1 μg/mL)” and the MIC (strain KP1172 Klebsiella pneumoniae (SHV-31(2be); DHA-1; VIM-1)) was “X (MIC of less than 1 μg/mL)”. The MIC (strain KP1173 Klebsiella pneumoniae (TEM-33(2br); CTX-M-15; IMP-1)) was “X (MIC of less than 1 μg/mL)”, the MIC (strain KP1174 Klebsiella pneumoniae (CTX-M-14; IMP-1)) was “X (MIC of less than 1 μg/mL)” and the MIC (strain KP1175 Klebsiella pneumoniae (SHV-OSBL(2b); VIM-1)) was “X (MIC of less than 1 μg/mL)”. The MIC (strain KP1177 Klebsiella pneumoniae (SHV-OSBL(2b), TEM-OSBL(2b); CTX-M-15; NDM-1)) was “X (MIC of less than 1 μg/mL)”, the MIC (strain KP1178 Klebsiella pneumoniae (SHV-OSBL(2b;) TEM-OSBL(2b); CTX-M-15; NDM-1)) was “X (MIC of less than 1 μg/mL)” and the MIC (strain KP1179 Klebsiella pneumoniae (SHV-12(2be), TEM-OSBL(2b); CTX-M-15; NDM-7)) was “X (MIC of less than 1 μg/mL)”. The MIC (strain KP1180 Klebsiella pneumoniae (SHV-OSBL(2b), TEM-OSBL(2b); CTX-M-15; DHA-1; IMP-26)) was “X (MIC of less than 1 μg/mL)”, the MIC (strain KP1181 Klebsiella pneumoniae (SHV-OSBL(2b); CTX-M-15; IMP-26)) was “X (MIC of less than 1 μg/mL)” and the MIC (strain KP1183 Klebsiella pneumoniae (SHV-OSBL(2b), TEM-OSBL(2b); CTX-M-15; NDM-1)) was “X (MIC of less than 1 μg/mL)”. For the same molecule, the MIC (strain KP1184 Klebsiella pneumoniae (SHV-OSBL(2b); IMP-1)) was “X (MIC of less than 1 μg/mL)”, the MIC (strain KP1185 Klebsiella pneumoniae (SHV-OSBL(2b), TEM-OSBL(2b); IMP-4)) was “Y (MIC of 1 μg/mL to 10 μg/mL)” and the MIC (strain KP1186 Klebsiella pneumoniae (CTX-M-15; NDM-1)) was “Y (MIC of 1 μg/mL to 10 μg/mL)”. For the same molecule, the MIC (strain KP1187 Klebsiella pneumoniae (SHV-55(2be), TEM-OSBL(2b); CTX-M-15; NDM-1)) was “X (MIC of less than 1 μg/mL)”, the MIC (strain KP1188 Klebsiella pneumoniae (SHV-OSBL(2b); CTX-M-15; NDM-1)) was “Y (MIC of 1 μg/mL to 10 μg/mL)” and the MIC (strain KP1189 Klebsiella pneumoniae (TEM-OSBL(2b); CTX-M-15; CTX-M-27; NDM-1)) was “X (MIC of less than 1 μg/mL)”. The MIC (strain KPM1123 Klebsiella pneumoniae (KPC-2 TEM SHV)) was “X (MIC of less than 1 μg/mL)”, the MIC (strain KPM1202 Klebsiella pneumoniae (KPC SHV TEM)) was “X (MIC of less than 1 μg/mL)” and the MIC (strain KPM1203 Klebsiella pneumoniae (KPC SHV TEM)) was “X (MIC of less than 1 μg/mL)”. The MIC (strain KPM1344 Klebsiella pneumoniae (VIM-1)) was “X (MIC of less than 1 μg/mL)”, the MIC (strain KPM1345 Klebsiella pneumoniae (VIM-1 SHV)) was “X (MIC of less than 1 μg/mL)” and the MIC (strain KPM1347 Klebsiella pneumoniae (NDM-1 SHV CTX-M-15)) was “X (MIC of less than 1 μg/mL)”. For the same molecule, the MIC (strain KX1017 Klebsiella oxytoca (KPC-2, OXA-2, SHV-30)) was “X (MIC of less than 1 μg/mL)”, the MIC (strain KX1018 Klebsiella oxytoca (KPC-2, SHV-40, OXY-1)) was “X (MIC of less than 1 μg/mL)” and the MIC (strain KX1019 Klebsiella oxytoca (KPC-2, OXA-2)) was “X (MIC of less than 1 μg/mL)”. The MIC (strain PM1024 Proteus mirabilis (TEM-1(2b); CMY-16; VIM-1)) was “X (MIC of less than 1 μg/mL)”, the MIC (strain PM1026 Proteus mirabilis (DHA-1; IMP-26)) was “X (MIC of less than 1 μg/mL)” and the MIC (strain PM1027 Proteus mirabilis (VIM-5)) was “X (MIC of less than 1 μg/mL)”. The MIC (strain SM1023 Serratia marcescens (VIM-4)) was “Y (MIC of 1 μg/mL to 10 μg/mL)”.
